Measurements reported in US20190225651A1, “COMPOUNDS FOR INDUCING TISSUE FORMATION AND USES THEREOF” (HISTIDE AG, priority 2015, published 2019).
Ends that are not written are not given here.

Tests used:
[1] = tested on: hMSCs; assay: Loss of stemness, STRO-1 immunostaining; type: cell-based, human; conditions: compound in solution in cell culture media
Procedure: (§1) The cells were first fixed for 20 min with 4% paraformaldehyde/PBS at 4° C. After fixation, the cells were permeabilized in PBS containing 1% Triton X-100 for 15 min. Runx2, Osterix, Stro-1, Vinculin, Phalloidin, Osteopontin, Sox2, Sox9 antibodies were visualized by treating the cells with 1% (v/v) specific monoclonal antibodies for 1 hour at 37° C. Then the samples were incubated with Alexa Fluor® 568 or 647 (F(ab′)2 fragment of IgG(H+L)) during 30 min at room temperature. The cell nuclei were counterstained in 20 ng/mL DAPI for 10 min at room temperature.
For this type of quantification the freeware image analysis ImageJ® software was used. The raw image was first converted to an 8-bit file, and then the unsharp mask feature was used (settings 1:0.2) to remove the image background (rolling ball radius 10). After smoothing, the resulting image, which appears similar to the original photomicrograph but with minimal background, was then converted to a binary image by setting a threshold. Threshold values were determined empirically by selecting a setting, which gave the most accurate binary image for a subset of randomly selected photomicrographs. The cell area was determined by manual delineation on raw fluorescent images. Total contact area and mean contact area per cell were calculated by “analyse particules” in ImageJ®. A minimum of […] per condition were analyzed. Stro-1 expression was determined using this procedure.
hMSCs were cultured on conventional cell culture plastic plates with and without the presence in the cell culture media of different GFR-binding compounds as defined hereins (SEQ ID NO: 39 to 45) in solution. […] This was probed by Stro-1 immunostaining after cell fixation as described in the Methods section. The quantification of Stro-1 positive contact numbers and areas was performed as described in the Methods section. A minimum of 30 cells per condition were analyzed. One should note that it is commonly admitted that the expression of STRO-1 in a cell is indicative of a cell that is in a substantially non-differentiated state and the decrease of its expression of at least about 20% is indicative of a cell that has started a processus of differentiation but which may not result in the differentiation of the cell. A decrease of more than 50% would be indicative of the presence of a significant shift towards a differentiated state. A decrease of more than 70% would be indicative of the presence of a very important shift towards a differentiated state. A sustained decrease (e.g. for at least 96 h) of more than 50% or 70% would be indicative of the presence of an even more important shift towards a differentiated state.
Likewise, hMSCs were cultured on conventional cell culture plastic plates with and without the presence in the cell culture media of different GFR-binding compounds as defined herein (SEQ ID NO: 1581 to 1606) in solution. […] This strong decrease was also confirmed after 96 h.

[2] = tested on: Hair Follicle Stem Cells; assay: Loss of quiescence and activation of hair follicle stem cells (Sox2, BMP-6); type: cell-based, Mouse
Procedure: Isolated Hair Follicle Stem Cells were cultured with and without GFR-binding compounds as defined herein (SEQ ID NO: 29 and 30). An increase in the Sox2 protein expression was observed illustrating the activation of these stem cells (FIG. 13a). In parallel, a decrease in the BMP-6 release in the cell culture medium was observed (FIG. 13b).

[3] = tested on: osteoblast progenitors; assay: Osteogenic differentiation of osteoblast progenitors on peptide-coated materials (Osteopontin staining, Runx2 Q-PCR); type: cell-based
Procedure: as §1
Total RNA was extracted by using the RNeasy total RNA kit (Qiagen®) according to the manufacturer's instructions. Purified total RNA was used as a template in order to make cDNA by a reverse transcription reaction (Gibco BrI®) with random primers (Invitrogen®). The cDNA was then used as a template for a real-time PCR amplification in the presence of SYBR green reagents (Bio-Rad®) by using a thermocycler (iCycler, Biorad®). Data were analyzed with the iCycler IQ™® software and compared by the ΔΔCt method. Briefly, the mean Ct value of the target gene was normalized to its averaged Ct values of the housekeeping gene (HPRT) to give a ΔCt value, which was then normalized to a control sample to obtain a ΔΔCt value. The results were obtained from two series of experiments performed in a triplicate.
The effect of these GFR-binding compounds as defined herein (SEQ ID NO: 19 and 20) on the differentiation of osteoblast progenitors was evaluated. These osteoblast progenitors were seeded onto the apatite ceramics or on type-I collagen sponge that were both coated with osteogenic peptides. […] This was seen from Osteopentin immunofluorescence staining after cell fixation as described in the Methods section (FIG. 7).
An increase in the Runx2 gene expression after 24 hours of culture (FIG. 8a) was observed by using Quantitative Real Time Polymerase Chain Reaction as described in the Methods section.

Substance | STRO-1 Expression (%) after 48 h [1] [%] | other results
1603 (GGGGGGGGGFDNDENVVAASKASSVPQRLRSVKVAKVFDNDENVV; also: cyclic, closure not given here) [compound 1603] | 34 | –
1599 (GGGGGGGGGDDSSNVISTPPTSSVSQKMKPLSILYVDDSSNVI; also: cyclic, closure not given here) [compound 1599] | 35 | –
1588 (GGGGGGGGGDENEKVVKIPKASSTQVRLRPVQIRKIDAANNVV; also: cyclic, closure not given here) [compound 1588] | 30 | –
1597 (GGGGGGGGGDENEKVVSTPPTSSVPTEVSPINTLYFDENEKVV; also: cyclic, closure not given here) [compound 1597] | 38 | –
1600 (GGGGGGGGGFDNDENVVRVPSTSSVPEKMEPLTMLYYFDNDENVV; also: cyclic, closure not given here) [compound 1600] | 29 | –
1604 (AAAAAAAAADAANNVVKIPKASSTQVRLRSVKTAKVDAANNVV; also: cyclic, closure not given here) [compound 1604] | 35 | –
1598 (AAAAAAAAADENEKVVKIPKASSVPTKMKPLSVLYVDDSSNVI; also: cyclic, closure not given here) [compound 1598] | 37 | –
1602 (AAAAAAAAADENEKVVRVPSTSSVPAEESNITVQIMDDSSNVI; also: cyclic, closure not given here) [compound 1602] | 42 | –
SEQ ID NO: 30: cyclic GFR-binding compound activating hair follicle stem cells; sequence not printed (DENEKSSLSILFFDENEKGGGGGG; also: cyclic, ring type and places not given here) | – | BMP-6 release in the cell culture medium [2]: decrease; Sox2 protein expression [2]: increase
1593 (GGGGGGGGGDENEKVVRVPSTSSTQVDLNAISVLYFDENEKVV; also: cyclic, closure not given here) [compound 1593] | 32 | –
1590 (GGGGGGGGGDENEKVVRVPSTSSTQVKMSAISMLYLDENEKVV; also: cyclic, closure not given here) [compound 1590] | 23 | –
1595 (GGGGGGGGGDDSSNVIGIPEPSSAPTRLEPISMLYLDENEKVV; also: cyclic, closure not given here) [compound 1595] | 27 | –
1596 (GGGGGGGGGDENEKVVKIPKASSVSQQLEPISTLYLDENEKVV; also: cyclic, closure not given here) [compound 1596] | 19 | –
1606 (GGGGGGGGGFDNDENVVGIPEPSSAPVDMRPVQIRKIFDNDENVV; also: cyclic, closure not given here) [compound 1606] | 43 | –
1585 (AAAAAAAAADENEKVVAASKASSVPQEEEPLPMVYYDAANNVV; also: cyclic, closure not given here) [compound 1585] | 27 | –
1584 (GGGGGGGGGDENEKVVGIPEPSSAPVDLKPLSTLYVDENEKVV; also: cyclic, closure not given here) [compound 1584] | 31 | –
1592 (GGGGGGGGGDDSSNVIAASKASSTPTDLNAISTLYFDDSSNVI; also: cyclic, closure not given here) [compound 1592] | 30 | –
1589 (GGGGGGGGGDDSSNVISTPPTSSSRVQLSAISMLYLDDSSNVI; also: cyclic, closure not given here) [compound 1589] | 22 | –
1587 (AAAAAAAAADENEKVVAASKASSSRVELRSVKIAKVDDSSNVI; also: cyclic, closure not given here) [compound 1587] | 33 | –
1582 (GGGGGGGGGDDSSNVIRVPSTSSVPTGQSAISTLYLDDSSNVI; also: cyclic, closure not given here) [compound 1582] | 29 | –
SEQ ID NO: 20: osteogenic cyclic GFR-binding compound of the sequence listing; sequence not printed (GTPGPSAISTLYLGGGGGGG; also: cyclic, ring type and places not given here) | – | differentiation into mature osteoblasts ([3]; 48 hours on coated apatite ceramics or type-I collagen sponge): differentiated into mature osteoblasts; production of extracellular matrix proteins such as Osteopontin (OPN) ([3]; versus native type-I collagen sponge or native apatite ceramics): produced extensive amounts of extracellular matrix proteins such as Osteopontin (OPN)
1601 (GGGGGGGGGFDNDENVVSTPPTSSTPTKMSNITTQIMFDNDENVV; also: cyclic, closure not given here) [compound 1601] | 41 | –
SEQ ID NO: 29: cyclic GFR-binding compound activating hair follicle stem cells; sequence not printed (DENKNSSLSILFFDENKNGGGGGG; also: cyclic, ring type and places not given here) | – | BMP-6 release in the cell culture medium [2]: decrease; Sox2 protein expression [2]: increase
1583 (GGGGGGGGGDDSSNVIRVPSTSSAPTKMNAISMLYFDENEKVV; also: cyclic, closure not given here) [compound 1583] | 34 | –
1586 (GGGGGGGGGDDSSNVIKIPKASSVPTGGSNITVQIMDDSSNVI; also: cyclic, closure not given here) [compound 1586] | 31 | –
1594 (AAAAAAAAADAANNVVGIPEPSSVSQELSATSMLYYDAANNVV; also: cyclic, closure not given here) [compound 1594] | 31 | –
1591 (AAAAAAAAADAANNVVKIPKASSSRVRLSSLSTLFFDAANNVV; also: cyclic, closure not given here) [compound 1591] | 21 | –
1581 (GGGGGGGGGDENEKVVNDEGLESVPEDLSSLSVLFFDENEKVV; also: cyclic, closure not given here) [compound 1581] | 33 | –
1605 (AAAAAAAAADENEKVVAASKASSVPEKMRPVQTRKIDDSSNVI; also: cyclic, closure not given here) [compound 1605] | 30 | –
